{
  "source": "paper PMC5715351",
  "about": "“Cysteine and histidine residues are involved in Escherichia coli Tn21 MerE methylmercury transport” (FEBS Open Bio, 2017)",
  "biological_target": "MerE (Shigella flexneri, UniProt Q7AKA4)",
  "sequence (Q7AKA4 whole entry)": "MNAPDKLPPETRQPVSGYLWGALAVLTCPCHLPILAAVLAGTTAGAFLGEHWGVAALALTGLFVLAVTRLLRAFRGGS",
  "conditions": "5 uM compound, LB broth with 100 ug/mL chloramphenicol and 100 uM EDTA, 37 °C",
  "data": [
    {"smiles": "[CH3][Hg][Cl]", "note": "[CH3Hg(I)]", "values": [
      {"measurement": "uptake of 14C-labelled compound by E. coli XL1-Blue cells, filtration and scinti", "result": "cells with pE4 took up significantly more CH3Hg(I) than control cells"}
    ]}
  ]
}
